Test results reported in paper PMC8954350, “Non-Canonical Cannabinoid Receptors with Distinct Binding and Signaling Properties in Prostate and Other Cancer Cell Types Mediate Cell Death” (International Journal of Molecular Sciences, 2022).

Key:
[1] = system: CBRs expressed in C6-glioma cells; test: [^3H]CP-55,940 competitive binding screen, C6-glioma membranes; parameters: species or system mouse; conditions: 1 μM ligand, 0.2 nM radioligand
Procedure: (§1) The assay was conducted as previously detailed. […] All binding reactions were conducted in triplicate, in a final volume of 1 mL, and, following mixing, were incubated for 20 min in a 37 °C water bath to achieve equilibrium. After incubation, reactions were terminated by rapid vacuum filtration through Whatman GF/B glass fiber filters (Brandel; Gaithersburg, MD, USA), followed by three washes of 4 mls of ice-cold filtration buffer (50 mM Tris, pH 7.4, and 0.05% bovine serum albumin). Samples were punched out from filter papers into scintillation vials, to which 4 mls of ScintiverseTM-BDR cocktail scintillation fluid (Fisher Scientific; Hampton, NH, USA) was added. Filters were incubated at room temperature for 24 h in scintillation fluid, vortexed, and radioactivity (measured as DPMs) was quantified via a liquid scintillation spectrophotometer (Tri Carb 2100 TR Liquid Scintillation Analyzer, Packard Instruments, Meriden, CT, USA).

[2] = system: CBRs expressed in PC-12 cells; test: [^3H]CP-55,940 competitive binding screen, PC-12 membranes; parameters: species or system rat; conditions: 1 μM ligand, 0.2 nM radioligand
Procedure: as §1

[3] = system: CBRs expressed in HeLa cells; test: [^3H]CP-55,940 competitive binding screen, HeLa membranes; parameters: species or system human; conditions: 1 μM ligand, 0.2 nM radioligand
Procedure: as §1

[4] = system: CBRs expressed in DU-145 cells; test: [^3H]CP-55,940 competitive binding screen, DU-145 membranes; parameters: species or system human; conditions: 1 μM ligand, 0.2 nM radioligand
Procedure: as §1

[5] = system: CBRs expressed in C6-glioma cells; test: [^3H]WIN-55,212-2 competitive binding screen, C6-glioma membranes; parameters: species or system mouse; conditions: 1 μM ligand, 1 nM radioligand
Procedure: as §1

[6] = system: CBRs expressed in PC-12 cells; test: [^3H]WIN-55,212-2 competitive binding screen, PC-12 membranes; parameters: species or system rat; conditions: 1 μM ligand, 1 nM radioligand
Procedure: as §1

[7] = molecular target: non-canonical CBRs expressed in C6-glioma; test: Homologous receptor binding, C6-glioma; parameters: species or system mouse; conditions: homologous competition with [^3H]WIN-55,212-2 (1 nM), read-out: affinity (KD)
Procedure: (§2) All binding reactions were conducted in triplicate, in a final volume of 1 mL, and, following mixing, were incubated for 20 min in a 37 °C water bath to achieve equilibrium. After incubation, reactions were terminated by rapid vacuum filtration and processed for radioactivity, as detailed in Section 4.5.1.
(§3) Curve-fitting and all statistical analyses were performed using GraphPad Prism® v8.0g (GraphPad Software, Inc.; San Diego, CA, USA). For qRT-PCR experiments, a one-way ANOVA, followed by Dunnett’s test as a post hoc test was utilized to compare fold change of PC-3 and DU-145 cancer cells to an arbitrary value of 1, set to the amount of mRNA transcribed from a human normal prostate control. For CBR screening studies, a one-sample t-test was performed to determine differences from 100% (e.g., to quantify compounds producing displacement), followed by a one-way ANOVA and Tukey’s post hoc tests to compare displacement produced by all drugs. […] For LDH release, ATP-dependent cell viability and JC-1 staining assays, drug effects were first analyzed by a one-sample t-test to determine differences from 0 or 100% (vehicle), followed by a one-way ANOVA and Dunnett’s post hoc test to compare all means. […]

[8] = molecular target: non-canonical CBRs expressed in PC-12; test: Homologous receptor binding, PC-12; parameters: species or system rat; conditions: homologous competition with [^3H]WIN-55,212-2 (1 nM), read-out: affinity (KD)
Procedure: as §2, §3

[9] = molecular target: non-canonical CBRs expressed in HeLa; test: Homologous receptor binding, HeLa; parameters: species or system human; conditions: homologous competition with [^3H]WIN-55,212-2 (1 nM), read-out: affinity (KD)
Procedure: as §2, §3

[10] = molecular target: non-canonical CBRs expressed in PC-3; test: Homologous receptor binding, PC-3; parameters: species or system human; conditions: homologous competition with [^3H]WIN-55,212-2 (1 nM), read-out: affinity (KD)
Procedure: as §2, §3

[11] = molecular target: non-canonical CBRs expressed in DU-145; test: Homologous receptor binding, DU-145; parameters: species or system human; conditions: homologous competition with [^3H]WIN-55,212-2 (1 nM), read-out: affinity (KD)
Procedure: as §2, §3

[12] = system: canonical human CB2Rs (CHO-hCB2); parameters: method as in PMID 34592231; conditions: 1 μM ligand, 0.2 nM radioligand, CHO-hCB2 membranes; cited from earlier work
[13] = system: canonical human CB2Rs (CHO-hCB2); parameters: method as in PMID 34592231; conditions: 1 μM ligand, 1 nM radioligand, CHO-hCB2 membranes; cited from earlier work
human CB2 receptors = molecular target: T1, human CB2 receptors (Homo sapiens, UniProt P34972); test: Competition binding, CHO-hCB2 membranes; conditions: membranes from CHO cells stably expressing human CB2
T1 construct: expressed in transfected cells
T1 sequence (P34972 whole entry): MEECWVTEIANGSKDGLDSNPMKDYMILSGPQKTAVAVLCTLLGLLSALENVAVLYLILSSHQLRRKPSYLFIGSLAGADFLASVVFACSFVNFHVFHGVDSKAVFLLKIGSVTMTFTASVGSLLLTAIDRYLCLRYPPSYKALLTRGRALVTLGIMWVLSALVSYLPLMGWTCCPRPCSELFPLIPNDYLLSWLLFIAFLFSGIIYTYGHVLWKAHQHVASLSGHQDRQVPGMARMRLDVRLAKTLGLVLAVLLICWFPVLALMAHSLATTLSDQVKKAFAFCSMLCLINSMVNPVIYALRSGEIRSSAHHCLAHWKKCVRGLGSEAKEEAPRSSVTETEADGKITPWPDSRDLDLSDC
Procedure: as §2, with “The assay was performed as previously detailed. […] All” for “All”
Curve-fitting and all statistical analyses were performed using GraphPad Prism® v8.0g (GraphPad Software, Inc.; San Diego, CA, USA). […] For CBR screening studies, a one-sample t-test was performed to determine differences from 100% (e.g., to quantify compounds producing displacement), followed by a one-way ANOVA and Tukey’s post hoc tests to compare displacement produced by all drugs. […] To compare specific CBR affinity (Ki) between ligands, non-linear regression analysis was employed to determine experimental IC50 values from competition receptor binding assays, which were then converted to Ki values using the Cheng–Prusoff equation [35]. […] For LDH release, ATP-dependent cell viability and JC-1 staining assays, drug effects were first analyzed by a one-sample t-test to determine differences from 0 or 100% (vehicle), followed by a one-way ANOVA and Dunnett’s post hoc test to compare all means. […]

NPrEC = test: LDH cytotoxicity, NPrEC cells; format: cell-based; conditions: NPrEC immortalized non-cancerous cell line

Q: Which results are given for `Cc1c(C(=O)c2cccc3ccccc23)c2cccc3c2n1[C@H](CN1CCOCC1)CO3` [WIN-55,212-2]?
A: displacement of [^3H]CP-55,940 [1]: neither the non-selective CBR ligand CP-55,940 nor WIN-55,212-2 produced significant displacement; displacement of [^3H]CP-55,940 [2]: neither the non-selective CBR ligand CP-55,940 nor WIN-55,212-2 produced significant displacement; displacement of [^3H]CP-55,940 [3]: neither the non-selective CBR ligand CP-55,940 nor WIN-55,212-2 produced significant displacement; displacement of [^3H]CP-55,940 [4]: neither the non-selective CBR ligand CP-55,940 nor WIN-55,212-2 produced significant displacement; displacement of [^3H]WIN-55,212-2 (Figure 1B) [5]: significantly displaced; displacement of [^3H]WIN-55,212-2 (Figure 1B) [6]: significantly displaced; Kd [7]: 16.1 ± 2.5 nM; Kd [8]: 12.6 ± 2.7 nM; Kd [9]: 7 ± 1.6 nM; Kd [10]: 8.4 ± 2.1 nM; Kd [11]: 4.3 ± 0.89 nM; displacement of [^3H]CP-55,940 [12]: produced near or complete displacement; displacement of [^3H]WIN-55,212-2 (Figure 1B) [13]: produced near or complete displacement

Q: Which Ki (human CB2 receptors) does the source give for `COc1ccc2c(c1)c(CCN1CCOCC1)c(C)n2C(=O)c1cccc(Cl)c1Cl` [GW-405833] here?
A: The Ki was 51 nM.

Q: What about the LDH release (NPrEC) of the same compound?
A: The LDH release was 46.4 ± 6.4%.
